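Interpolation was linear, between the two tested concentrations surrounding the appropriate level; five concentrations were tested over 48 hours in 96-well plates. TGI marks complete inhibition of growth.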
Legend:
Experiment in all cases: NCI tumour cell line growth inhibition, 48 h
786-0 renal = system: 786-0 renal
A498 renal = system: A498 renal
A549 NSCLC = system: A549 NSCLC
ACHN renal = system: ACHN renal
BT-549 breast = system: BT-549 breast
CAKI-1 renal = system: CAKI-1 renal
CCRF-CEM leukemia = system: CCRF-CEM leukemia
COLO 205 colon = system: COLO 205 colon
DU-145 prostate = system: DU-145 prostate
EKVX NSCLC = system: EKVX NSCLC
HCC-2998 colon = system: HCC-2998 colon
HCT-116 colon = system: HCT-116 colon
HCT-15 colon = system: HCT-15 colon
HL-60(TB) leukemia = system: HL-60(TB) leukemia
HOP-62 NSCLC = system: HOP-62 NSCLC
HOP-92 NSCLC = system: HOP-92 NSCLC
HS 578T breast = system: HS 578T breast
HT29 colon = system: HT29 colon
IGROV1 ovarian = system: IGROV1 ovarian
K-562 leukemia = system: K-562 leukemia
LOX IMVI melanoma = system: LOX IMVI melanoma
M14 melanoma = system: M14 melanoma
MALME-3M melanoma = system: MALME-3M melanoma
MCF7 breast = system: MCF7 breast
MDA-MB-231 breast = system: MDA-MB-231 breast
MDA-MB-435 = system: MDA-MB-435
MDA-N = system: MDA-N
MOLT-4 leukemia = system: MOLT-4 leukemia
NCI-H226 lung = system: NCI-H226 lung
NCI-H23 lung = system: NCI-H23 lung
NCI-H460 lung = system: NCI-H460 lung
NCI-H522 lung = system: NCI-H522 lung
NCI/ADR-RES ovarian = system: NCI/ADR-RES ovarian
OVCAR-3 ovarian = system: OVCAR-3 ovarian
OVCAR-4 ovarian = system: OVCAR-4 ovarian
OVCAR-5 ovarian = system: OVCAR-5 ovarian
OVCAR-8 ovarian = system: OVCAR-8 ovarian
PC-3 prostate = system: PC-3 prostate
RPMI-8226 leukemia = system: RPMI-8226 leukemia
RXF 393 renal = system: RXF 393 renal
SF-268 CNS = system: SF-268 CNS
SF-295 CNS = system: SF-295 CNS
SF-539 CNS = system: SF-539 CNS
SK-MEL-2 melanoma = system: SK-MEL-2 melanoma
SK-MEL-28 melanoma = system: SK-MEL-28 melanoma
SK-MEL-5 melanoma = system: SK-MEL-5 melanoma
SK-OV-3 ovarian = system: SK-OV-3 ovarian
SN12C renal = system: SN12C renal
SNB-19 CNS = system: SNB-19 CNS
SNB-75 CNS = system: SNB-75 CNS
SR leukemia = system: SR leukemia
SW-620 colon = system: SW-620 colon
T-47D breast = system: T-47D breast
TK-10 renal = system: TK-10 renal
U251 CNS = system: U251 CNS
UACC-257 melanoma = system: UACC-257 melanoma
UACC-62 melanoma = system: UACC-62 melanoma
UO-31 renal = system: UO-31 renal

SMILES: COc1cc(C2c3[nH]c4ccccc4c3[C@@H](Nc3ccc(C#N)cc3)[C@H]3COC(=O)N23)cc(OC)c1O (stereo partly drawn)
- TGI (786-0 renal): 0.337 µM
- TGI (A498 renal): 0.777 µM
- TGI (A549 NSCLC): 0.421 µM
- TGI (ACHN renal): 0.621 µM
- TGI (BT-549 breast): 0.796 µM
- TGI (CAKI-1 renal): 1.78 µM
- TGI (CCRF-CEM leukemia): 0.404 µM
- TGI (COLO 205 colon): > 3.81 µM
- TGI (DU-145 prostate): 0.839 µM
- TGI (EKVX NSCLC): 4.32 µM
- TGI (HCC-2998 colon): 0.704 µM
- TGI (HCT-116 colon): 2.11 µM
- TGI (HCT-15 colon): 5.56 µM
- TGI (HL-60(TB) leukemia): 0.165 µM
- TGI (HOP-62 NSCLC): 1.54 µM
- TGI (HOP-92 NSCLC): > 4.61 µM
- TGI (HS 578T breast): 2.49 µM
- TGI (HT29 colon): > 10 µM
- TGI (IGROV1 ovarian): 3 µM
- TGI (K-562 leukemia): > 10 µM
- TGI (LOX IMVI melanoma): 0.681 µM
- TGI (M14 melanoma): 1.58 µM
- TGI (MALME-3M melanoma): 1.2 µM
- TGI (MCF7 breast): 2.7 µM
- TGI (MDA-MB-231 breast): 2.14 µM
- TGI (MDA-MB-435): 2.19 µM
- TGI (MDA-N): 1.57 µM
- TGI (MOLT-4 leukemia): 0.0634 µM
- TGI (NCI-H226 lung): 0.651 µM
- TGI (NCI-H23 lung): 2.55 µM
- TGI (NCI-H460 lung): 0.342 µM
- TGI (NCI-H522 lung): 0.547 µM
- TGI (NCI/ADR-RES ovarian): > 10 µM
- TGI (OVCAR-3 ovarian): 2.21 µM
- TGI (OVCAR-4 ovarian): 4.4 µM
- TGI (OVCAR-5 ovarian): 4.54 µM
- TGI (OVCAR-8 ovarian): 0.933 µM
- TGI (PC-3 prostate): 6.6 µM
- TGI (RPMI-8226 leukemia): 0.688 µM
- TGI (RXF 393 renal): 4.12 µM
- TGI (SF-268 CNS): 0.909 µM
- TGI (SF-295 CNS): 0.734 µM
- TGI (SF-539 CNS): 0.208 µM
- TGI (SK-MEL-2 melanoma): 0.752 µM
- TGI (SK-MEL-28 melanoma): 2.73 µM
- TGI (SK-MEL-5 melanoma): 0.321 µM
- TGI (SK-OV-3 ovarian): 1.04 µM
- TGI (SN12C renal): 0.625 µM
- TGI (SNB-19 CNS): > 10 µM
- TGI (SNB-75 CNS): 0.763 µM
- TGI (SR leukemia): 0.059 µM
- TGI (SW-620 colon): 1.49 µM
- TGI (T-47D breast): 3.5 µM
- TGI (TK-10 renal): 0.866 µM
- TGI (U251 CNS): 1.32 µM
- TGI (UACC-257 melanoma): 3.29 µM
- TGI (UACC-62 melanoma): 0.651 µM
- TGI (UO-31 renal): 2.57 µM
